Results from the supplement of paper PMC10307832.

Experiments:
Assay in all cases: relative viability (nuclei count vs DMSO), 5 days (fraction); higher = more cells survive
[1] = compound: C1=CC2=NC=CN=C2C=C1/C=C/3\C(=O)NC(=O)S3 + Cc1nc(Nc2ncc(C(=O)Nc3c(C)cccc3Cl)s2)cc(N2CCN(CCO)CC2)n1 [Dasatinib] (partner 0.075 µM)
Summary of the method: (§1)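 Relative viability was taken as the ratio of nuclei in treated wells to nuclei in vehicle wells. Lung cancer cell lines in 1536-well plates received compounds by pin tool one day after seeding, either one drug alone or a fixed anchor-drug dose plus five library-drug doses (not always all listed) in √10 steps. Nuclei were counted on 4× images after 5 days of treatment, and values are medians of duplicate plates.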

BGJ398 + Trametinib = compound: CCN1CCN(c2ccc(Nc3cc(N(C)C(=O)Nc4c(Cl)c(OC)cc(OC)c4Cl)ncn3)cc2)CC1 [BGJ398] + CC(=O)Nc1cccc(-n2c(=O)n(C3CC3)c(=O)c3c(Nc4ccc(I)cc4F)n(C)c(=O)c(C)c32)c1 [Trametinib] (partner 0.02 µM)
Summary of the method: as §1

BGJ398 + Foretinib = compound: CCN1CCN(c2ccc(Nc3cc(N(C)C(=O)Nc4c(Cl)c(OC)cc(OC)c4Cl)ncn3)cc2)CC1 [BGJ398] + COc1cc2c(Oc3ccc(NC(=O)C4(C(=O)Nc5ccc(F)cc5)CC4)cc3F)ccnc2cc1OCCCN1CCOCC1 [Foretinib] (partner 0.25 µM)
Summary of the method: as §1

BGJ398 + Pictilisib = compound: CCN1CCN(c2ccc(Nc3cc(N(C)C(=O)Nc4c(Cl)c(OC)cc(OC)c4Cl)ncn3)cc2)CC1 [BGJ398] + CS(=O)(=O)N1CCN(Cc2cc3nc(-c4cccc5[nH]ncc45)nc(N4CCOCC4)c3s2)CC1 [Pictilisib] (partner 1 µM)
Summary of the method: as §1

Cell Line | relative viability ([1]; first compound 0.02 µM) | relative viability ([1]; first compound 0.06325 µM) | relative viability ([1]; first compound 0.2 µM) | relative viability ([1]; first compound 0.6325 µM) | relative viability ([1]; first compound 2 µM) | relative viability (BGJ398 + Trametinib; first compound 0.01 µM) | relative viability (BGJ398 + Trametinib; first compound 0.03162 µM) | relative viability (BGJ398 + Trametinib; first compound 0.1 µM) | relative viability (BGJ398 + Trametinib; first compound 0.3162 µM) | relative viability (BGJ398 + Trametinib; first compound 1 µM) | relative viability (BGJ398 + Foretinib; first compound 0.01 µM) | relative viability (BGJ398 + Foretinib; first compound 0.03162 µM) | relative viability (BGJ398 + Foretinib; first compound 0.1 µM) | relative viability (BGJ398 + Foretinib; first compound 0.3162 µM) | relative viability (BGJ398 + Foretinib; first compound 1 µM) | relative viability (BGJ398 + Pictilisib; first compound 0.01 µM) | relative viability (BGJ398 + Pictilisib; first compound 0.03162 µM) | relative viability (BGJ398 + Pictilisib; first compound 0.1 µM) | relative viability (BGJ398 + Pictilisib; first compound 0.3162 µM) | relative viability (BGJ398 + Pictilisib; first compound 1 µM)
201T | 0.543 | 0.619 | 0.583 | 0.556 | 0.28 | 0.817 | 0.696 | 0.688 | 0.643 | 0.693 | 1.18 | 1.1 | 1.05 | 0.958 | 1.02 | 0.804 | 0.659 | 0.641 | 0.652 | 0.559
NCI-H2126 | 0.499 | 0.625 | 0.614 | 0.629 | 0.266 | 0.609 | 0.531 | 0.615 | 0.629 | 0.567 | 1.19 | 1.28 | 1.26 | 1.2 | 1.12 | 0.528 | 0.461 | 0.52 | 0.495 | 0.418
HOP-62 | 0.651 | 0.736 | 0.605 | 0.621 | 0.503 | 0.395 | 0.364 | 0.359 | 0.291 | 0.288 | 0.939 | 1.13 | 1.18 | 1.19 | 1.07 | 0.731 | 0.768 | 0.649 | 1.16 | 0.669
CAL-12T | 0.417 | 0.34 | 0.439 | 0.304 | 0.139 | 0.302 | 0.428 | 0.315 | 0.404 | 0.308 | 1.04 | 1.13 | 1.04 | 1.11 | 1.12 | 0.423 | 0.441 | 0.532 | 0.409 | 0.342
NCI-H520 | 0.181 | 0.229 | 0.217 | 0.161 | 0.151 | 0.586 | 0.548 | 0.351 | 0.189 | 0.205 | 0.777 | 0.7 | 0.316 | 0.25 | 0.236 | 0.239 | 0.257 | 0.209 | 0.169 | 0.194
NCI-H1755 | 0.43 | 0.371 | 0.448 | 0.355 | 0.257 | 0.723 | 0.751 | 0.725 | 0.638 | 0.554 | 0.88 | 0.985 | 0.919 | 0.929 | 0.955 | 0.443 | 0.446 | 0.361 | 0.349 | 0.285
NCI-H2023 | 0.5 | 0.55 | 0.582 | 0.446 | 0.246 | 0.615 | 0.566 | 0.473 | 0.522 | 0.541 | 0.847 | 0.997 | 0.79 | 0.805 | 0.905 | 0.226 | 0.219 | 0.173 | 0.244 | 0.16
NCI-H2009 | 0.312 | 0.31 | 0.358 | 0.272 | 0.175 | 0.261 | 0.265 | 0.219 | 0.23 | 0.244 | 1.11 | 1.24 | 1.22 | 1.22 | 1.26 | 0.803 | 0.955 | 0.731 | 0.842 | 0.847
